Our source for the TGI values is PubChem BioAssay (NCI).

What all share (test): inhibition of tumour cell growth, NCI panel, 48 h
Experiment [1] deals with MDA-MB-435.
Experiment [2] concerns OVCAR-3 ovarian.
Experiment [3] deals with NCI-H460 lung.
Experiment [4] deals with HCT-15 colon.
The subject of experiment [5] is SNB-19 CNS.
Experiment [6] deals with TK-10 renal.
Experiment [7] deals with PC-3 prostate.
Experiment [8] deals with HL-60(TB) leukemia.
In experiment [9] the test system is NCI-H23 lung.
Experiment [10] deals with UO-31 renal.

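All cell lines were grown in 96-well plates and treated with compound for 48 hours. TGI marks complete inhibition of growth.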 Some results are limits rather than exact numbers.

Take `CCOC(=O)CCC(NC(=O)Cc1ccc(Oc2nc3ccccc3nc2-c2ccccc2)cc1)C(=O)OCC` (stereo not drawn): the TGI in [1], in [2], in experiment [3], in experiment [4], in experiment [5] and in experiment [6] was > 100 µM each time. Also, the TGI in experiment [7], in experiment [8], in [9] and in experiment [10] was > 100 µM throughout.

For the molecule `CC12ON(P(=O)(c3ccccc3)c3ccccc3)C(C)(c3ccccc31)c1ccccc12`, the TGI in experiment [1], in experiment [2], in experiment [3], in [4], in experiment [5] and in experiment [6] was > 100 µM in each case. The TGI in experiment [7], in experiment [8], in experiment [9] and in experiment [10] was > 100 µM each time.

With `CN(C)CCNC(=O)c1ccc(Cl)c2cc3ccccc3nc12`, the TGI in experiment [1] came to 2.22 µM; in [2], 6.88 µM; in experiment [3], 3.9 µM; in experiment [4], 7.15 µM; in experiment [5] it was 14.3 µM; in [6], 5.95 µM. Also, the TGI amounted to 2.6 µM in experiment [7], 3.98 µM in experiment [8], 2.08 µM in [9] and 11 µM in experiment [10].

Take `CCCC(=O)NC(Nc1ccc(F)cc1)(C(F)(F)F)C(F)(F)F`: the TGI in [1], in experiment [2], in experiment [3], in experiment [4], in experiment [5] and in [6] was > 100 µM throughout. Moreover, the TGI in experiment [7], in experiment [8], in experiment [9] and in experiment [10] was > 100 µM throughout.

For `CN[C@@H](C)[C@@H](O)c1ccccc1`, the TGI is > 100 µM in [1]; > 10 µM in experiment [2]; > 100 µM in experiment [3]; > 100 µM in experiment [4]; > 100 µM in [5]; > 100 µM in [6]. The TGI in [7], in [8], in experiment [9] and in experiment [10] was > 100 µM each time.

As for `O=C(O)CNC(=O)c1ccc2cc(C(=O)N3CC(CCl)c4ccc([N+](=O)[O-])cc43)[nH]c2c1` (stereo not drawn), the TGI in experiment [1], in experiment [2], in experiment [3], in experiment [4], in experiment [5] and in [6] was > 100 µM throughout. Besides, the TGI in [7], in experiment [8], in [9] and in [10] was > 100 µM in each case.

`COc1ccc(N=C2C(=Nc3ccc(OC)cc3)N(c3ccc(N(C)C)cc3)C(=S)N2c2ccc(OC)cc2)cc1`: the TGI in experiment [1], in [2], in experiment [3], in [4], in [5] and in experiment [6] was > 100 µM each time. Also, the TGI in experiment [7], in experiment [8], in experiment [9] and in experiment [10] was > 100 µM each time.

For the molecule `Cc1cc(N2CCCC2)c([N+](=O)[O-])cc1[N+](=O)[O-]`, the TGI in [1], in experiment [2], in experiment [3], in experiment [4], in experiment [5] and in experiment [7] was > 100 µM throughout. Moreover, the TGI in experiment [8], in [9] and in [10] was > 100 µM throughout.

As for `Cc1c2ccccc2c(C)n2c1nc1ccccc12`, the TGI in experiment [1] was determined as 19.1 µM; in [2], 21.8 µM; in experiment [3], 20.1 µM; in experiment [4], 65.7 µM; in [5], 68.3 µM; in [6], 44.4 µM. Also, the TGI in experiment [7] is 25.2 µM; in [8] it was > 100 µM; in experiment [9], 30.7 µM; in [10] it was 24.1 µM.

As to `COc1ccc(CNc2nc3cc(C(F)(F)F)ccc3nc2-c2ccccc2)cc1OC`, the TGI was > 100 µM in experiment [1]; > 100 µM in experiment [2]; 46.5 µM in experiment [3]; > 100 µM in experiment [4]; > 100 µM in [5]; > 100 µM in experiment [6]. The TGI in experiment [7], in [8], in [9] and in experiment [10] was > 100 µM throughout.

Regarding `COC(=O)C1=CON2C3CC4CC(C3)CC(C4)C12C` (stereo not drawn), the TGI in experiment [1], in experiment [2], in experiment [3], in experiment [4], in experiment [5] and in experiment [6] was > 100 µM throughout. Moreover, the TGI in experiment [7], in experiment [8], in experiment [9] and in experiment [10] was > 100 µM throughout.

On to `COc1cc(OC2OC(COC(=O)c3cc(O)c(O)c(O)c3)C(O)C(O)C2O)ccc1O` (stereo not drawn), for which the TGI was 63.3 µM in experiment [1]; > 100 µM in [2]; > 100 µM in experiment [3]; > 100 µM in [4]; > 100 µM in experiment [5]; > 100 µM in experiment [6]. Moreover, the TGI was 81.9 µM in experiment [7], > 100 µM in experiment [8], > 100 µM in experiment [9] and > 100 µM in experiment [10].

On to `CNC(=S)NNc1ncnc2c1ncn2-c1ccc(C)cc1`, for which the TGI in [1], in experiment [2], in experiment [3], in experiment [4], in experiment [5] and in experiment [6] was > 100 µM each time. Further, the TGI in experiment [7], in experiment [8], in experiment [9] and in experiment [10] was > 100 µM throughout.

Regarding `COc1ccc([C@]23CCN4COC[C@@H]([C@H]42)C2(CC3)OCC(C)(C)CO2)cc1OC`, the TGI in experiment [1], in experiment [3], in experiment [4], in experiment [5], in [6] and in experiment [7] was > 100 µM throughout. For the same molecule, the TGI in experiment [8], in experiment [9] and in experiment [10] was > 100 µM in each case.
